Columns and labels:
Mus musculus [1] = assay: Toxicity in Mus musculus Swiss albino (mouse) assessed as abnormal changes in skin at 500 to 2000 mg/kg, po measured after 14 days; assay type: organism-based; parameters: dose 500-2000 mg/kg, route oral; settings: in vivo, 336 h
Mus musculus [2] = assay: Toxicity in Mus musculus Swiss albino (mouse) assessed as mortality at 500 to 2000 mg/kg, po measured after 14 days; assay type: organism-based; parameters: dose 500-2000 mg/kg, route oral; settings: in vivo, 336 h
Mus musculus [3] = assay: Toxicity in Mus musculus Swiss albino (mouse) assessed as abnormal changes in fur at 500 to 2000 mg/kg, po measured after 14 days; assay type: organism-based; parameters: dose 500-2000 mg/kg, route oral; settings: in vivo, 336 h
Mus musculus [4] = assay: Toxicity in Mus musculus Swiss albino (mouse) assessed as abnormal changes in eyes at 500 to 2000 mg/kg, po measured after 14 days; assay type: organism-based; parameters: dose 500-2000 mg/kg, route oral; settings: in vivo, 336 h
Mus musculus [5] = assay: Analgesic activity in Mus musculus Swiss albino (mouse) assessed as inhibition of acetic acid-induced writhing at 160 mg/kg, po administered 30 min prior challenge measured after 5 min of challenge for next 30 min relative to control; assay type: functional
Rattus norvegicus [6] = assay: Anti-inflammatory activity in Rattus norvegicus Wistar (rat) assessed as inhibition of carrageenan-induced paw edema at 160 mg/kg, po administered 30 min prior to carrageenan challenge measured at 4 hr relative to control; assay type: functional
Mus musculus [7] = assay: Toxicity in Mus musculus Swiss albino (mouse) assessed as changes in behavioral pattern at 500 to 2000 mg/kg, po measured after 14 days; assay type: organism-based; parameters: dose 500-2000 mg/kg, route oral; settings: in vivo, 336 h
Mus musculus [8] = assay: Analgesic activity in Mus musculus Swiss albino (mouse) assessed as inhibition of acetic acid-induced writhing at 10 mg/kg, po administered 30 min prior challenge measured after 5 min of challenge for next 30 min relative to control; assay type: functional
Rattus norvegicus [9] = assay: Anti-inflammatory activity in Rattus norvegicus Wistar (rat) assessed as inhibition of carrageenan-induced paw edema at 10 mg/kg, po administered 30 min prior to carrageenan challenge measured at 4 hr relative to control; assay type: functional

SMILES | Activity (Mus musculus [1]) | Activity (Mus musculus [2]) | Activity (Mus musculus [3]) | Activity (Mus musculus [4]) | inhibition in vivo at 160 mg/kg (Mus musculus [5]) [%] | inhibition in vivo at 160 mg/kg (Rattus norvegicus [6]) [%] | Activity (Mus musculus [7]) | inhibition in vivo at 10 mg/kg (Mus musculus [8]) [%] | inhibition in vivo at 10 mg/kg (Rattus norvegicus [9]) [%]
COc1ccc(C(=O)/C=C/c2ccc(O)c(OC)c2)cc1 | Non-toxic | Non-toxic | Non-toxic | Non-toxic | 89.6 | 80 | Non-toxic | – | –
O=C(/C=C/c1ccc(Cl)cc1)c1ccc(-c2ccccc2)cc1 | Non-toxic | Non-toxic | Non-toxic | Non-toxic | 74.3 | 52.9 | Non-toxic | – | –
COc1ccc(C(=O)/C=C/c2ccc(N(C)C)cc2)cc1 | Non-toxic | Non-toxic | Non-toxic | Non-toxic | 47.9 | 69.8 | Non-toxic | – | –
COc1ccc(C(=O)/C=C/c2ccccc2O)cc1 | Non-toxic | Non-toxic | Non-toxic | Non-toxic | 50.7 | 76.1 | Non-toxic | – | –
O=C(/C=C/c1ccccc1O)c1ccc(-c2ccccc2)cc1 | Non-toxic | Non-toxic | Non-toxic | Non-toxic | 75.7 | 80.6 | Non-toxic | – | –
CC(=O)Oc1ccccc1C(=O)O [ASPIRIN] | – | – | – | – | – | – | – | 88.9 | –
O=C(/C=C/c1ccc(O)cc1)c1ccc(-c2ccccc2)cc1 | Non-toxic | Non-toxic | Non-toxic | Non-toxic | 66.7 | 74.8 | Non-toxic | – | –
O=C(/C=C/c1ccccc1)c1ccc(-c2ccccc2)cc1 | Non-toxic | Non-toxic | Non-toxic | Non-toxic | 71.5 | 68.4 | Non-toxic | – | –
COc1ccc(C(=O)/C=C/c2ccc(Cl)cc2)cc1 | Non-toxic | Non-toxic | Non-toxic | Non-toxic | 48.6 | 77.6 | Non-toxic | – | –
O=C(/C=C/c1ccc(F)cc1)c1ccc(-c2ccccc2)cc1 | Non-toxic | Non-toxic | Non-toxic | Non-toxic | 56.5 | 76.8 | Non-toxic | – | –
COc1cc(/C=C/C(=O)c2ccc(-c3ccccc3)cc2)cc(OC)c1 | Non-toxic | Non-toxic | Non-toxic | Non-toxic | 84.7 | 63.2 | Non-toxic | – | –
O=C(/C=C/c1ccoc1)c1ccc(-c2ccccc2)cc1 | Non-toxic | Non-toxic | Non-toxic | Non-toxic | 51.4 | 52.9 | Non-toxic | – | –
O=C(/C=C/c1ccccc1Cl)c1ccc(-c2ccccc2)cc1 | Non-toxic | Non-toxic | Non-toxic | Non-toxic | 85.1 | 61.9 | Non-toxic | – | –
COc1ccc(/C=C/C(=O)c2ccc(-c3ccccc3)cc2)cc1 | Non-toxic | Non-toxic | Non-toxic | Non-toxic | 83.3 | 74.8 | Non-toxic | – | –
CN(C)c1ccc(/C=C/C(=O)c2ccc(Br)cc2)cc1 | Non-toxic | Non-toxic | Non-toxic | Non-toxic | 31.9 | 54.5 | Non-toxic | – | –
CN(C)c1ccc(/C=C/C(=O)c2ccc(-c3ccccc3)cc2)cc1 | Non-toxic | Non-toxic | Non-toxic | Non-toxic | 72.9 | 58.7 | Non-toxic | – | –
COc1ccc(/C=C/C(=O)c2ccc(Br)cc2)cc1 | Non-toxic | Non-toxic | Non-toxic | Non-toxic | 70.8 | 67.7 | Non-toxic | – | –
COc1cc(/C=C/C(=O)c2ccc(-c3ccccc3)cc2)cc(OC)c1OC | Non-toxic | Non-toxic | Non-toxic | Non-toxic | 85.4 | 78.7 | Non-toxic | – | –
O=C(/C=C/c1ccccc1[N+](=O)[O-])c1ccc(-c2ccccc2)cc1 | Non-toxic | Non-toxic | Non-toxic | Non-toxic | 40.3 | 45.2 | Non-toxic | – | –
COc1ccc(/C=C/C(=O)c2ccc(OC)cc2)cc1 [4,4'-DIMETHOXYCHALCONE] | Non-toxic | Non-toxic | Non-toxic | Non-toxic | 87.5 | 72.9 | Non-toxic | – | –
COc1ccc(C(=O)/C=C/c2ccccc2)cc1 [4'-METHOXYCHALCONE] | Non-toxic | Non-toxic | Non-toxic | Non-toxic | 25.7 | 69.8 | Non-toxic | – | –
COc1ccc2c(c1)c(CC(=O)O)c(C)n2C(=O)c1ccc(Cl)cc1 [INDOMETHACIN] | – | – | – | – | – | – | – | – | 79.3

Source: ChEMBL document CHEMBL3044776, “Microwave-assisted synthesis, pharmacological evaluation, and QSAR studies of 1,3-diaryl-2-propen-1-ones” (Med Chem Res, 2012)
